From patent US9844599B2, “Nitric oxide releasing produgs of therapeutic agents” (priority 2013, dated 2017)
“Also recorded” adds a separate entry of the source. Read-outs that look alike come from different tables or passages of the source.

Experiment: Stability of prodrugs / release of parent drug in Simulated Gastric Fluid (SGF)
Assay type: in vitro ADME
Procedure: SGF was prepared according to the procedure described in Test Solution—USP. Thus, 0.2 g of sodium chloride and 0.32 g of purified pepsin (Sigma, derived from porcine stomach mucosa with an activity of 800 to 2500 units per mg of protein) were dissolved in 0.7 mL of hydrochloric acid and sufficient water to make 100 mL. This test solution has a pH of about 1.2 and was utilized for in-vitro studies.
The solution of the test compound in acetonitrile (10 μL of […] solution) was dissolved in 990 μL of biological fluid (SGF/SIF/Human Plasma). The resulting reaction mixtures were incubated at 37° C. At specified time intervals, aliquots (60 μL) were withdrawn and added to acetonitrile (200 μL) and mixed well by vortexing for 2 minutes. The mixture was centrifuged at 13000 rpm for 15 min at 4° C., and the supernatant analyzed by HPLC. The amounts (area percentages) of the remaining intact prodrug (if any) and the released metabolite(s) were estimated by HPLC.
This was performed by using HPLC instrument (Waters alliance), pump 2695, and PDA detector 2996 with the following chromatographic parameters: Wavelength −210 nm; Column-Waters X-Terra RP-18, 150×3.9 mm, 5 μm; Injection volume, 25 μL; Run time, 13 min. Mode of operation was linear gradient with mobile phase A: Acetonitrile and B: 0.1% TFA in water (filtered and degassed). Flow rate was 1.0 mL/min at 25° C.

[1] = simulated gi fluid, 0 h, 1 µM, pH 1.2
[2] = simulated gi fluid, 1 µM, pH 1.2
[3] = simulated gi fluid, 5 min, 1 µM, pH 1.2
[4] = simulated gi fluid, 10 min, 1 µM, pH 1.2
[5] = simulated gi fluid, 0.5 h, 1 µM, pH 1.2
[6] = simulated gi fluid, 1 h, 1 µM, pH 1.2
[7] = simulated gi fluid, 2 h, 1 µM, pH 1.2
[8] = simulated gi fluid, 3 h, 1 µM, pH 1.2

CCC(OC(=O)[C@@H](C)c1ccc2cc(OC)ccc2c1)O[N+](=O)[O-] (stereo partly drawn) [I-D2-R2, (2S)-1-(nitrooxy)propyl 2-(6-methoxynaphthalen-2-yl)propanoate]
Release of parent drug on incubation in SGF (in words): released naproxen
Prodrug Remaining (%) [1]: 100%
t1/2 of prodrug in SGF [2]: ~1 h
Prodrug Remaining (%) [3]: 94.33%
Prodrug Remaining (%) [4]: 90.43%
Prodrug Remaining (%) [5]: 62.15%
Prodrug Remaining (%) [6]: 51.01%
Prodrug Remaining (%) [7]: 39.08%
Prodrug Remaining (%) [8]: 6.77%

CCCC(OC(=O)[C@@H](C)c1ccc2cc(OC)ccc2c1)O[N+](=O)[O-] (stereo partly drawn) [I-D2-R3, (2S)-1-(nitrooxy)butyl 2-(6-methoxynaphthalen-2-yl)propanoate]
Release of parent drug on incubation in SGF (in words): released naproxen
Prodrug Remaining (%) [1]: 100%
t1/2 of prodrug in SGF [2]: ~2.5 h
Prodrug Remaining (%) [3]: 96.35%
Prodrug Remaining (%) [4]: 93.61%
Prodrug Remaining (%) [5]: 82.73%
Prodrug Remaining (%) [6]: 75.48%
Prodrug Remaining (%) [7]: 57.55%
Prodrug Remaining (%) [8]: 39.00%

CCCCC(OC(=O)[C@@H](C)c1ccc2cc(OC)ccc2c1)O[N+](=O)[O-] (stereo partly drawn) [I-D2-R4, (2S)-1-(nitrooxy)pentyl 2-(6-methoxynaphthalen-2-yl)propanoate]
Release of parent drug on incubation in SGF (in words): released appreciable amounts of the parent drug naproxen
Prodrug Remaining (%) [1]: 100%
t1/2 of prodrug in SGF [2]: >3 h
Prodrug Remaining (%) [3]: 97.74%
Prodrug Remaining (%) [4]: 96.18%
Prodrug Remaining (%) [5]: 90.53%
Prodrug Remaining (%) [6]: 88.87%
Prodrug Remaining (%) [7]: 79.97%
Prodrug Remaining (%) [8]: 71.04%

CC(OC(=O)CCCc1ccc(N(CCCl)CCCl)cc1)O[N+](=O)[O-] (stereo not shown) [I-D3-R1, 1-(nitrooxy)ethyl 4-(4-(bis(2-chloroethyl)amino)phenyl)butanoate]
Prodrug Remaining (%) (SGF, 0 min): 92.12%
Prodrug Remaining (%) (SGF, 5 min): 20.49%
Prodrug Remaining (%) (SGF, 10 min): 13.84%
Prodrug Remaining (%) (SGF, 15 min): 8.59%
Prodrug Remaining (%) (SGF, 30 min): 0.00%
Prodrug Remaining (%) (SGF, 60 min): 0.00%
Prodrug Remaining (%) (SGF, 120 min): 0.00%
Prodrug Remaining (%) (SGF, 180 min): 0.00%
Release of parent drug on incubation in SGF (in words) (SGF, whole time course): quantitative release of the parent drug, chlorambucil; also recorded: released its parent drug chlorambucil quantitatively
half-life at 1 µM (simulated gi fluid, pH 1.2, SGF, read-out: t1/2 of prodrug in SGF): < 5 min

CC(=O)Oc1ccccc1C(=O)Oc1cccc(CO[N+](=O)[O-])c1 [II-D1-X1, reference compound]
Fate of prodrug on incubation in SGF (in words): remained intact
% of Prodrug remaining (μM) [1]: 100.00%
% of Prodrug remaining (μM) [3]: 100.00%
% of Prodrug remaining (μM) [4]: 100.00%
% of Prodrug remaining (μM) [5]: 100.00%
% of Prodrug remaining (μM) [6]: 100.00%
% of Prodrug remaining (μM) [7]: 100.00%

COc1ccc2cc([C@H](C)C(=O)OCCO[N+](=O)[O-])ccc2c1 [II-D2-X2, reference compound]
Fate of prodrug on incubation in SGF (in words): remained intact
Release of parent drug on incubation in SGF (in words): no release of parent drug naproxen
Prodrug Remaining (%) [1]: 100.00%
Prodrug Remaining (%) [3]: 99.68%
Prodrug Remaining (%) [4]: 99.79%
Prodrug Remaining (%) [5]: 99.75%
Prodrug Remaining (%) [6]: 99.67%
Prodrug Remaining (%) [7]: 99.39%
Prodrug Remaining (%) [8]: 99.19%

COc1ccc2cc([C@H](C)C(=O)OCCCO[N+](=O)[O-])ccc2c1 [II-D2-X3, reference compound]
Prodrug Remaining (%) [1]: 100.00%
Prodrug Remaining (%) [3]: 100.00%
Prodrug Remaining (%) [4]: 100.00%
Prodrug Remaining (%) [5]: 100.00%
Prodrug Remaining (%) [6]: 100.00%
Prodrug Remaining (%) [7]: 100.00%
Prodrug Remaining (%) [8]: 100.00%

COc1ccc2cc([C@H](C)C(=O)OCCCCO[N+](=O)[O-])ccc2c1 [II-D2-X4, reference compound]
Prodrug Remaining (%) [1]: 100.00%
Prodrug Remaining (%) [3]: 100.00%
Prodrug Remaining (%) [4]: 100.00%
Prodrug Remaining (%) [5]: 100.00%
Prodrug Remaining (%) [6]: 100.00%
Prodrug Remaining (%) [7]: 100.00%
Prodrug Remaining (%) [8]: 100.00%
